# Assay results from patent publication US10508992B2, “Method and probe for monitoring oxygen status in live mammalian cells” (University College Cork, National University of Ir Cork, priority 2010, dated 2019).
# System: MEF cells
# Conditions: MEF cells loaded with probe 10 ug/ml, 12 h; different concentrations, added at 30 min, FIG. 6
# Protocol: The plate was then measured on a Victor 2 reader as described in Example 4. Initially it was monitored for ˜30 min to reach O2 and temperature equilibrium and obtain basal signals, then quickly withdrawn from the reader, compounds were added to the cells (10 ul of 10× stock solution in each well) and monitoring was resumed. Measured TR-F intensity signals for each sample well were converted into phosphorescence lifetime (t) values and plotted. Control samples and repetitive additions were incorporated as appropriate.
compound,measurement,value
N#CC(C#N)=NNc1ccc(OC(F)(F)F)cc1 [FCCP],response of probe phosphorescence lifetime to stimulation,Increases in probe lifetime
